Laboratory results taken from patent US10123993B2, “Cyclic ureas as inhibitors of rock” (BRISTOL-MYERS SQUIBB COMPANY, priority 2015, dated 2018).
Counter-ions that a name gives are not always drawn.

Target: ROCK2 (Homo sapiens, UniProt O75116)
Experiment: ROCK2 kinase inhibition assay (Caliper LABCHIP, FITC peptide substrate)
Format: biochemical
Conditions: 5 μM ATP, 1.5 μM peptide substrate; value ranges
Procedure, shortened: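 Rho kinase with 5 μM ATP and 1.5 μM FITC-AHA-AKRRRLSSLRA-OH peptide in HEPES pH 7.5, 20 mM MgCl2, 0.015% Brij-35, 4 mM DTT, DMSO <2%. EDTA stop; phospho and non-phospho peptide separated on LabChip. IC50 from dose-response fit.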

Chain of ROCK2 (O75116 whole entry, species assumed): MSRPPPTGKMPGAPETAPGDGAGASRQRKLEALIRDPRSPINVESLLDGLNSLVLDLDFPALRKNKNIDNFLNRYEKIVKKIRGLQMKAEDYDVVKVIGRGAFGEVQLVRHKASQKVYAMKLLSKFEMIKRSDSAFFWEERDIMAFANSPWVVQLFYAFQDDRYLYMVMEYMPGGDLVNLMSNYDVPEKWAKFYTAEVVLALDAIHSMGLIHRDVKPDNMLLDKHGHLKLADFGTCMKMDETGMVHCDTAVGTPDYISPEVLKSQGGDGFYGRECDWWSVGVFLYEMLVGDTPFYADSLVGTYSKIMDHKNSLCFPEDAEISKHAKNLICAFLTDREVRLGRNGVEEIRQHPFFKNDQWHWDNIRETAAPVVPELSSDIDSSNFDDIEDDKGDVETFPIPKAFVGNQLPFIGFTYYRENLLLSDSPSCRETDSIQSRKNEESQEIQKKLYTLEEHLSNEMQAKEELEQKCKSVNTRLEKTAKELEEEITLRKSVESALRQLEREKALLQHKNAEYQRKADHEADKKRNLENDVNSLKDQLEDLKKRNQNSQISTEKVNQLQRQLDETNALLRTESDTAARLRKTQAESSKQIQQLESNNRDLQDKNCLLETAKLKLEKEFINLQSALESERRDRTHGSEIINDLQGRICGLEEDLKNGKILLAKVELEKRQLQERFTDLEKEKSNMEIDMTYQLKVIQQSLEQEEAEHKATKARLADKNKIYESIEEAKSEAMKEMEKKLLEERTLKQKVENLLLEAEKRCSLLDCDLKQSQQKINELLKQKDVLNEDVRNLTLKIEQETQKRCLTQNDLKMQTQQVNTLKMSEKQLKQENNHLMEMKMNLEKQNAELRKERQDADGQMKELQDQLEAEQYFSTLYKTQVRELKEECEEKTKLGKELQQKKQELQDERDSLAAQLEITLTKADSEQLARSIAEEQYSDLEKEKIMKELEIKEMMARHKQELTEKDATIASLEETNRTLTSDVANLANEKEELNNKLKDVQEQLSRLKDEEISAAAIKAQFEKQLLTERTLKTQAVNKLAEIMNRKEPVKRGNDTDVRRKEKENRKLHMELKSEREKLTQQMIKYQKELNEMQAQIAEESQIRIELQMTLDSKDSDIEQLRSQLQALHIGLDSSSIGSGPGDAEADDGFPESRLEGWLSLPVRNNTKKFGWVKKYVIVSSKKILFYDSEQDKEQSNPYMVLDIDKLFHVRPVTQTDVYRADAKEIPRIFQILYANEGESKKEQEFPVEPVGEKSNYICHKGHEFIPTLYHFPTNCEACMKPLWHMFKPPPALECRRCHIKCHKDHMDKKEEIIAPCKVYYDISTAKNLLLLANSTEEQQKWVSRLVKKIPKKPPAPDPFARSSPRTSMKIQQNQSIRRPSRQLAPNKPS

IC50 [nM]	SMILES
200 to 2000	COc1cc(N2C(=O)CN(Cc3ccccc3F)C2=O)ccc1-c1cn[nH]c1 [Example 91, 1-(2-fluorobenzyl)-3-(3-methoxy-4-(1H-pyrazol-4-yl)phenyl)imidazolidine-2,4-dione, TFA]
200 to 2000	COc1cc(N2C(=O)CN(Cc3cc(F)ccc3F)C2=O)ccc1-c1cn[nH]c1 [Example 92, 1-(2,5-difluorobenzyl)-3-(3-methoxy-4-(1H-pyrazol-4-yl)phenyl)imidazolidine-2,4-dione, TFA]
20.1 to 200	COc1cccc(CN2CC(=O)N(c3ccc(-c4cn[nH]c4)c(OC)c3)C2=O)c1 [Example 93, 3-(3-methoxy-4-(1H-pyrazol-4-yl)phenyl)-1-(3-methoxybenzyl)imidazolidine-2,4-dione, TFA]
20.1 to 200	COc1cc(F)cc(CN2CC(=O)N(c3ccc(-c4cn[nH]c4)c(OC)c3)C2=O)c1 [Example 94, 1-(3-fluoro-5-methoxybenzyl)-3-(3-methoxy-4-(1H-pyrazol-4-yl)phenyl)imidazolidine-2,4-dione, TFA]
20.1 to 200	CC(c1ccccc1)N1CC(=O)N(c2ccc(-c3cn[nH]c3)cc2)C1=O (stereo not shown) [Example 95, 3-(4-(1H-pyrazol-4-yl)phenyl)-1-(1-phenylethyl)imidazolidine-2,4-dione]
200 to 2000	COc1cc(N2C(=O)CN(C(C)c3ccccc3)C2=O)ccc1-c1cn[nH]c1 (stereo not shown) [Example 96, 3-(3-methoxy-4-(1H-pyrazol-4-yl)phenyl)-1-(1-phenylethyl)imidazolidine-2,4-dione]
200 to 2000	COc1cc(N2C(=O)CN(CCc3ccccc3)C2=O)ccc1-c1cn[nH]c1 [Example 97, 3-(3-methoxy-4-(1H-pyrazol-4-yl)phenyl)-1-phenethylimidazolidine-2,4-dione]
20.1 to 200	COc1cc(N2CC(=O)N(Cc3ccccc3)C2=O)ccc1-c1cn[nH]c1 [Example 98, 3-Benzyl-1-(3-methoxy-4-(1H-pyrazol-4-yl)phenyl)imidazolidine-2,4-dione]
20.1 to 200	COc1cc(N2CC(=O)N(Cc3ccccc3F)C2=O)ccc1-c1cn[nH]c1 [Example 99, 3-(2-fluorobenzyl)-1-(3-methoxy-4-(1H-pyrazol-4-yl)phenyl)imidazolidine-2,4-dione]
20.1 to 200	COc1cc(N2CC(=O)N(Cc3cccc(F)c3)C2=O)ccc1-c1cn[nH]c1 [Example 100, 3-(3-fluorobenzyl)-1-(3-methoxy-4-(1H-pyrazol-4-yl)phenyl)imidazolidine-2,4-dione]
2.1 to 20	COc1cc(F)cc(CN2C(=O)CN(c3ccc(-c4cn[nH]c4)c(OC)c3)C2=O)c1 [Example 101, 3-(3-fluoro-5-methoxybenzyl)-1-(3-methoxy-4-(1H-pyrazol-4-yl)phenyl) imidazolidine-2,4-dione]
20.1 to 200	COc1cc(N2CC(=O)N(Cc3c(F)cccc3F)C2=O)ccc1-c1cn[nH]c1 [Example 102, 3-(2,6-difluoro-benzyl)-1-(3-methoxy-4-(1H-pyrazol-4-yl)phenyl) imidazolidine-2,4-dione]
20.1 to 200	COc1cc(N2CC(=O)N(CCc3ccccc3)C2=O)ccc1-c1cn[nH]c1 [Example 103, 1-(3-methoxy-4-(1H-pyrazol-4-yl)phenyl)-3-phenethylimidazolidine-2,4-dione]
20.1 to 200	COc1cc(N2CC(=O)N(Cc3ccccc3Cl)C2=O)ccc1-c1cn[nH]c1 [Example 104, 3-(2-chlorobenzyl)-1-(3-methoxy-4-(1H-pyrazol-4-yl)phenyl)imidazolidine-2,4-dione]
2.1 to 20	COc1cccc(CN2C(=O)CN(c3ccc(-c4cn[nH]c4)c(OC)c3)C2=O)c1 [Example 105, 1-(3-methoxy-4-(1H-pyrazol-4-yl)phenyl)-3-(3-methoxy-benzyl)imidazolidine-2,4-dione]
20.1 to 200	COc1cc(N2CC(=O)N(C(C)c3ccccc3)C2=O)ccc1-c1cn[nH]c1 (stereo not shown) [Example 106, 1-(3-methoxy-4-(1H-pyrazol-4-yl)phenyl)-3-(1-phenylethyl) imidazolidine-2,4-dione]
2.1 to 20	COc1cc(F)cc(CN2C(=O)CN(c3ccc(-c4cn[nH]c4)cc3)C2=O)c1 [Example 107, 1-(4-(1H-pyrazol-4-yl)phenyl)-3-(3-fluoro-5-methoxy-benzyl)imidazolidine-2,4-dione]
200 to 2000	O=C1CN(c2ccc(-c3cn[nH]c3)cc2)C(=O)N1Cc1c(F)cccc1F [Example 108, 1-(4-(1H-pyrazol-4-yl)phenyl)-3-(2,6-difluorobenzyl) imidazolidine-2,4-dione]
200 to 2000	CC(c1ccccc1)N1C(=O)CN(c2ccc(-c3cn[nH]c3)cc2)C1=O (stereo not shown) [Example 109, 1-(4-(1H-pyrazol-4-yl)phenyl)-3-(1-phenylethyl) imidazolidine-2,4-dione]
20.1 to 200	O=C1CN(c2ccc(-c3cn[nH]c3)cc2)C(=O)N1Cc1ccccc1 [Example 110, 1-(4-(1H-pyrazol-4-yl)phenyl)-3-benzyl-imidazolidine-2,4-dione]

IC50 [nM]	SMILES
2.1 to 20	O=C1CN(c2ccc(-c3cn[nH]c3)cc2)C(=O)N1Cc1ccccc1Cl [Example 111, 1-(4-(1H-pyrazol-4-yl)phenyl)-3-(2-chlorobenzyl) imidazolidine-2,4-dione]
< 2	COc1cccc(CN2C(=O)CN(c3ccc(-c4cn[nH]c4)cc3)C2=O)c1 [Example 112, 1-(4-(1H-pyrazol-4-yl)phenyl)-3-(3-methoxybenzyl) imidazolidine-2,4-dione]
20.1 to 200	O=C1CN(c2ccc(-c3cn[nH]c3)cc2)C(=O)N1CCc1ccccc1 [Example 113, 1-(4-(1H-pyrazol-4-yl)phenyl)-3-phenethyl-imidazolidine-2,4-dione]
20.1 to 200	O=C1CN(c2ccc(-c3cn[nH]c3)cc2)C(=O)N1Cc1cccc(F)c1 [Example 114, 1-(4-(1H-pyrazol-4-yl)phenyl)-3-(3-fluoro-benzyl)imidazolidine-2,4-dione]
20.1 to 200	O=C1CN(c2ccc(-c3cn[nH]c3)cc2)C(=O)N1Cc1cc(F)ccc1F [Example 115, 1-(4-(1H-pyrazol-4-yl)phenyl)-3-(2,5-difluorobenzyl) imidazolidine-2,4-dione]
20.1 to 200	COc1cccc(CN2CCN(c3ccc(-c4cn[nH]c4)cc3)C2=O)c1F [Example 116, 1-(4-(1H-Pyrazol-4-yl)phenyl)-3-(2-fluoro-3-methoxybenzyl)imidazolidin-2-one]
200 to 2000	COc1ccc(CN2CCN(c3ccc(-c4cn[nH]c4)cc3)C2=O)cc1F [Example 117, 1-(4-(1H-pyrazol-4-yl)phenyl)-3-(3-fluoro-4-methoxybenzyl)imidazolidin-2-one]
< 2	COc1cc(F)cc(CN2CCN(c3ccc(-c4cn[nH]c4)cc3)C2=O)c1 [Example 118, 1-(4-(1H-pyrazol-4-yl)phenyl)-3-(3-fluoro-5-methoxybenzyl)imidazolidin-2-one]
20.1 to 200	COc1ccc(F)cc1CN1CCN(c2ccc(-c3cn[nH]c3)cc2)C1=O [Example 119, 1-(4-(1H-pyrazol-4-yl)phenyl)-3-(5-fluoro-2-methoxybenzyl)imidazolidin-2-one]
20.1 to 200	COc1ccc(F)c(CN2CCN(c3ccc(-c4cn[nH]c4)cc3)C2=O)c1 [Example 120, 1-(4-(1H-pyrazol-4-yl)phenyl)-3-(2-fluoro-5-methoxybenzyl)imidazolidin-2-one]
200 to 2000	COc1cccc(CN2C(=O)N(c3ccc(-c4cn[nH]c4)cc3)C(=O)C2CO)c1 (stereo not shown) [Example 121, 3-(4-(1H-Pyrazol-4-yl)phenyl)-5-(hydroxymethyl)-1-(3-methoxybenzyl)imidazolidine-2,4-dione]
< 2	COc1cccc([C@@H](C)N2CCN(c3ccc(-c4cn[nH]c4)cc3)C2=O)c1 [Example 122, (R)-1-(4-(1H-Pyrazol-4-yl)phenyl)-3-(1-(3-methoxyphenyl)ethyl)imidazolidin-2-one]
< 2	COc1cccc(CN2C(=O)N(c3ccc(-c4cn[nH]c4)cc3)C[C@@H]2CO)c1 [Example 125, (R)-1-(4-(1H-Pyrazol-4-yl)phenyl)-4-(hydroxymethyl)-3-(3-methoxybenzyl)imidazolidin-2-one]
< 2	COc1cc(F)cc(CN2C(=O)N(c3ccc(-c4cn[nH]c4)cc3)C[C@H]2CO)c1 [Example 129, (S)-1-(4-(1H-pyrazol-4-yl)phenyl)-3-(3-fluoro-5-methoxy-benzyl)-4-(hydroxy-methyl)-imidazolidin-2-one]
< 2	COc1cccc(CN2C(=O)N(c3ccc(-c4cn[nH]c4)cc3)CC2(C)C)c1 [Example 137, 1-(4-(1H-Pyrazol-4-yl)phenyl)-3-(3-methoxybenzyl)-4,4-dimethylimidazolidin-2-one]
2.1 to 20	COc1cc(F)cc(CN2C(=O)N(c3ccc(-c4cn[nH]c4)cc3)CC2(C)C)c1 [Example 138, 1-(4-(1H-pyrazol-4-yl)phenyl)-3-(3-fluoro-5-methoxy-benzyl)-4,4-dimethyl-imidazolidin-2-one]
200 to 2000	COc1ccc(CN2C(=O)N(c3ccc(-c4cn[nH]c4)cc3)CC2(C)C)cc1F [Example 139, 1-(4-(1H-pyrazol-4-yl)phenyl)-3-(3-fluoro-4-methoxy-benzyl)-4,4-dimethyl-imidazolidin-2-one]
2.1 to 20	COc1cc(CN2C(=O)N(c3ccc(-c4cn[nH]c4)cc3)CC2(C)C)ccc1F [Example 140, 1-(4-(1H-pyrazol-4-yl)phenyl)-3-(4-fluoro-3-methoxy-benzyl)-4,4-dimethyl-imidazolidin-2-one]
2.1 to 20	CC1(C)CN(c2ccc(-c3cn[nH]c3)cc2)C(=O)N1Cc1cccc(F)c1 [Example 141, 1-(4-(1H-pyrazol-4-yl)phenyl)-3-(3-fluoro-benzyl)-4,4-dimethyl-imidazolidin-2-one]
20.1 to 200	CC1(C)CN(c2ccc(-c3cn[nH]c3)cc2)C(=O)N1Cc1cccc(OC(F)F)c1 [Example 142, 1-(4-(1H-pyrazol-4-yl)phenyl)-3-(3-(difluoro-methoxy)-benzyl)-4,4-dimethyl-imidazolidin-2-one]
